Measured values as given in patent publication US20050113284A1, “Drug for regenerating tissue and vessel and method therefor” (priority 2001, published 2005).

How the values were obtained:
[1] = tested on: MERMUC; assay: MERMUC protein phosphorylation in [32P]-labelled MERMUC/293 cells; type: cell-based, human; conditions: for phosphorylation of MERMUC upon growth factor stimulation: MERMUC overexpressing cells cultured without Dox, HGF 20ng/ml, 5 min
Protocol: After labeling the Tet-Off/MERMUC expressing recombinant cells (MERMUC/293 cells) produced above with (^32P] orthophosphate, the cells were stimulated with human recombinant HGF (20ng/ml; 5 min). Next, cell lysate was prepared by lysing cells according to conventional method. Anti-human MERMUC polyclonal antibody prepared as above (Example 2) was added to and reacted with the obtained cell lysate, bound to protein-G Sepharose, and then MERMUC protein and anti-MERMUC polyclonal antibody complex was precipitated by centrifugation.
The precipitate was extracted with 1% SDS and similar immunoprecipitation procedure was performed to reduce the background. The sample prepared by this procedure was separated by SDS-PAGE and analyzed by autoradiography.
Furthermore, MERMUC expression in the above mentioned recombinant cells was confirmed to be constant regardless of the presence or absence of HGF by Western blotting according to conventional method using anti-human MERMUC polyclonal antibody.
The following experiments were conducted similarly as described above: • 1) epidermal growth factor (EGF) was used in place of HGF; • 2) MERMUC expressing cells were treated with HGF signaling suppressor, PI3 kinase inhibitor (LY294002; 10 μM; CALBIOCHEM), before HGF stimulation; • 3) MERMUC expressing cells were treated with HGF signaling suppressor, MEK 1/2 inhibitor (U0126; 10 μM; CALBIOCHEM), before HGF stimulation; • 4) MERMUC expressing cells were treated with PI3 kinase inhibitor (LY294002; 10 μM) before EGF stimulation; and • 5) MERMUC expressing cells were treated with MEK 1/2 inhibitor (U0126; 10 μM) before EGF stimulation.

[2] = target: T1, HGF receptor c-Met β chain (Homo sapiens, UniProt P08581); assay: Yeast two-hybrid binding of MERMUC bait proteins to c-Met prey (C-terminal 91 amino acids); conditions: prey clone No. 3-309 (C-terminal 91 amino acids of human c-Met)
T1 construct: expressed in transfected cells; host or cells: yeast AH109 strain (library prey plasmid, human kidney cDNA library, CLONTECH)
T1 sequence (P08581 1300-1390): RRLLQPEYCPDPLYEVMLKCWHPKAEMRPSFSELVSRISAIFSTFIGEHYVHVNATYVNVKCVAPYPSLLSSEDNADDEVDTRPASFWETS
Protocol: The present examination was performed using the previously reported yeast two-hybrid system (references are described above) according to conventional method and the experimental protocols provided with the reagents. […]
The binding ability of MERMUC bait protein derived from each of the bait vectors to the HGF receptor c-Met β chain was analyzed by the yeast two-hybrid system described above. […]
Each of the bait vectors was cointroduced into yeast AH109 strain with human HGF receptor c-Met prey vector (comprising DNA encoding the C-terminal 91 amino acids of the c-Met; Example 1). The binding ability of each of the bait proteins (randomly selected 10 amino acids of the human MERMUC C-terminal region) to the C-terminal region of human c-Met β chain was analyzed by the yeast two-hybrid system similar to the aforementioned Example.

[3] = tested on: hepatocytes; assay: Growth factor dependent proliferation of primary hepatocytes of MERMUC-Tg and non-Tg mice; type: cell-based, mouse; conditions: 24 hr
Protocol: Primary cell culture of hepatocytes from liver cells obtained from the liver of each of the MERMUC-Tg mice (8 weeks old, 4 mice) and non-Tg mice (8 weeks old, 4 mice) was prepared by collagenase treatment according to the method of Berry and Friend, and Seglen et al. (Berry & Friend, J. Cell Biol., 1969, Vol. 43, p. 506-520; Seglen et al., Methods in Cell Biol., 1976, Vol. 13, p. 29-83).
Each of the obtained hepatocytes (2×10^3 cells) was cultured in serum-free media for 15 hr, HGF (0, 1 or 3 ng/ml) was added to the media to induce HGF-dependent cell proliferation, and was further cultured. Similarly, cultivation was performed by adding epidermal growth factor (EGF; 0, 1, or 10 ng/ml) in place of HGF to the culture as a control.
After 24 hr from HGF addition, cell numbers were counted using Cell Count Reagent SF (Nacalai tesque) according to the experimental protocol provided with the reagent to calculate the relative cell proliferation rate after HGF (or EGF) addition. Tests were conducted in triplicate.

[4] = tested on: liver; assay: HGF-dependent liver enlargement in MERMUC-Tg and non-Tg mice; type: in vivo; conditions: human HGF expression plasmid 28 μg/mouse into tail vein, two days
From the text: It has been reported that HGF is transiently overexpressed in vivo by the injection of HGF expression plasmid DNA into the tail vein of normal mice, causing liver enlargement due to the enhancement of hepatocyte proliferation (Hepatology, 2001, Vol. 33, p848-859). Therefore, to validate the down-regulation activity of MERMUC on HGF receptor mediated signaling, the method in the above mentioned report was applied to MERMUC overexpressing transgenic mice (MERMUC-Tg; 7 weeks old; male; 23-33 g) produced in the previous Example, and the effect due to the expression of MERMUC on liver enlargement induced by HGF overexpression was examined. Human HGF expression plasmid (human HGF-cDNA in pcDNA3; Invitrogen) or plasmid pcDNA3 (mock) was injected into the tail vein of each of MERMUC-Tg mouse and littermate non-Tg mouse at a concentration of 28 μg/mouse (2.3 ml saline) within 5 to 10 seconds. The HGF level in serum of each of the mice was measured using a human HGF ELISA kit (Genzyme Techne) two days after the plasmid injection. The level of HGF production due to the administered plasmid in each animal was evaluated together with the changes in liver weight upon laparotomy.

[5] = tested on: C-terminal region of human MERMUC (bait-2, bait-3); assay: Yeast two hybrid screening of human kidney cDNA library with MERMUC baits; type: binding; conditions: bait-2 = 123 amino acid portion of the C-terminus of human MERMUC
Sequence of C-terminal region of human MERMUC (bait-2, bait-3) (Q8N307 587-709): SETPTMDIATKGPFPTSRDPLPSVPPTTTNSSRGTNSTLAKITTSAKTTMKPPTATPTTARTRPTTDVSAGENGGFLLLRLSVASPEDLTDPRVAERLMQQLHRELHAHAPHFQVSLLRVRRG
Protocol: Specifically, yeast two hybrid system (Proc. Natl. Acad. Sci. USA., 1991, Vol.88, p.9578-9582) was performed to screen a human kidney cDNA library using cDNA corresponding to the C-terminal region of the human MERMUC as the bait (that is, fishing bait).
Two kinds of bait (bait-2 and bait-3) were designed using each of Ex.-2 and Ex.-3 as the core. Bait-2 corresponds to a 123 amino acid portion of the C-terminus (bait-2) and bait-3 corresponds to the 65 C-terminal amino acids (bait-3).
Each bait vector was obtained by inserting each DNA fragment obtained by digesting each of the PCR products with the restriction enzymes EcoRI and SalI into the EcoRI/SalI site of pGBKT7 vector (leucine biosynthesis gene as a marker; CLONTECH). In yeast, the gene within the vector is produced as a fusion protein ([fusion protein A]) with the DNA binding region (GAL4-DB) of the yeast transcription factor GAL4.
On the other hand, each cDNA of the human kidney derived cDNA library (CLONTECH) that is used for the screening with the bait vector is inserted in pADK vector (tryptophan biosynthesis gene as a marker). Therefore, proteins produced through the expression of each of these cDNAs in yeast are produced as a fusion protein ([fusion protein B]) with the GAL4 transcriptional activation region (GAL4-AD). […]

Compound: N#CC(=C(/N)Sc1ccccc1N)/C(C#N)=C(/N)Sc1ccccc1N [MEK 1/2 inhibitor, U0126, reference compound]
- suppression of the enhancement of MERMUC phosphorylation ([1]; cells treated with inhibitor 10 μM before HGF stimulation): suppressed only in the cells treated with PI3 kinase inhibitor

Compound: C53: MERMUC bait protein, C-terminal 53 amino acids of C260; amino acids 451-503 of SEQ ID NO: 10 (GENGGFLLLRLSVASPEDLTDPRVAERLMQQLHRELHAHAPHFQVSLLRVRRG; listed as Homo sapiens)
- binding activity to the HGF receptor c-Met β chain [2]: possessed the binding activity

Compound: EGF: epidermal growth factor, used as control in place of HGF
- phosphorylation of MERMUC upon growth factor stimulation [1]: did not show effect to increase phosphorylation of MERMUC
- EGF stimulated hepatocyte proliferation ([3]; MERMUC-Tg and non-Tg hepatocytes, EGF 0, 1 or 10 ng/ml): dosage-dependent cell proliferation

Compound: HGF: hepatocyte growth factor, ligand of c-Met; in b422 supplied by human HGF expression plasmid (human HGF-cDNA in pcDNA3)
- phosphorylation of MERMUC upon growth factor stimulation [1]: strong signal band
- increase of the ratio of liver weight to body weight ([4]; MERMUC-Tg mice): about 1.2 times
- increase of the ratio of liver weight to body weight ([4]; non-Tg mice): about 1.6 times
- proliferation due to HGF stimulation of hepatocytes ([3]; MERMUC-Tg derived hepatocytes compared with non-Tg, HGF 0, 1 or 3 ng/ml): significant decrease

Compound: clone No. 2-211: prey protein: C-terminal 56 amino acids (amino acids 448-503 of SEQ ID NO: 10) of human MERMUC (VSAGENGGFLLLRLSVASPEDLTDPRVAERLMQQLHRELHAHAPHFQVSLLRVRRG; listed as Homo sapiens)
- binding ability to the protein derived from bait-2 [5]: had binding ability
